In paper PMC9847679, “The anti-breast cancer stem cell properties of gold(I)-non-steroidal anti-inflammatory drug complexes” (Chemical Science, 2022):
Like-named read-outs stand apart in the source and are kept apart here.

Key:
COX-2 = molecular target: T1, COX-2 (Ovis aries, UniProt P79208); assay: COX-2 inhibition enzyme immunoassay (EIA); assay type: biochemical, ovine; conditions: COX-2-catalysed conversion of arachidonic acid to prostaglandin, tested 1-250 μM
T1 construct: purchased Cayman Chemicals
T1 sequence (P79208 17-603): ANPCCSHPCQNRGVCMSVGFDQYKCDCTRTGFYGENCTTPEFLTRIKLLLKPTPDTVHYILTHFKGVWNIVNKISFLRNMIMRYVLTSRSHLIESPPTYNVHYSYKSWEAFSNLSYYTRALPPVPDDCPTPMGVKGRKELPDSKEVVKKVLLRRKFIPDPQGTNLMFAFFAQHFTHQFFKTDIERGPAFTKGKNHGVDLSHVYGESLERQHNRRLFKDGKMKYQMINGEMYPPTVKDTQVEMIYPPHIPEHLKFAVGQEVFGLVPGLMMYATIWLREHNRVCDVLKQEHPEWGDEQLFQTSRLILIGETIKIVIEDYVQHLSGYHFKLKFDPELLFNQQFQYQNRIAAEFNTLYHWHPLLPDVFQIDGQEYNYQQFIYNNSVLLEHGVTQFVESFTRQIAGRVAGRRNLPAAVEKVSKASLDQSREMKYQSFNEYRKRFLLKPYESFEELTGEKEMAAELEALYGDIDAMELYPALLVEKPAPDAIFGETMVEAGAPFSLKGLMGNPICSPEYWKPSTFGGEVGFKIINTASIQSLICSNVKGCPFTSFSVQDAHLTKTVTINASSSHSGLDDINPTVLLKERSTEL
Procedure: ice-cold methanol (for 30 min), and suspended in PBS (200 μL). […]
COX-2 Inhibition Enzyme Immunoassay (EIA). The COX-2 inhibitory properties of 1,
indomethacin, and ch loro(triphenylphosphine)gold(I) was determined using the “COX
(ovine) Inhibitor Screening Assay (Cayman Chemicals).” The assay was performed
according to the manuf acturer’s instructions using a 96-well plate set up.

HMLER cells [1] = assay: Monolayer cytotoxicity (MTT assay), HMLER cells; assay type: cell-based, human; conditions: 72 h incubation, MTT
Text: (§1) Cell Lines and Cell Culture Conditions. The human mammary epithelial HMLER and HMLER-shEcad cell lines were kindly donated by Prof. R. A. Weinberg (Whitehead Institute, MIT). The human epithelial breast MCF10A, breast adenocarcinoma MDA-MB-231 and MDA-MB-468, murine epithelial breast 4T1, and embryonic kidney HEK 293 cell lines were acquired from American Type Culture Collection (ATCC, Manassas, VA, USA).
(§2) HMLER, HMLER-shEcad, and MCF10A cells were maintained in Mammary Epithelial Cell Growth Medium (MEGM) with supplements and growth factors (BPE, hydrocortisone, hEGF, insulin, and gentamicin/amphotericin-B). MDA-MB-231, MDA-MB-468, 4T1, and HEK 293 cells were maintained in Dulbecco's Modified Eagle's Medium (DMEM) supplemented with fetal bovine serum (10 %) and penicillin/streptomycin (1 %). The cells were grown at 310 K in a humidified atmosphere containing 5% CO2.
(§3) Monolayer Cytotoxicity Studies. Exponentially growing cells were seeded at a density of approximately 5 × 10^3 cells per well in 96-well flat-bottomed microplates and allowed to attach for 24 h prior to addition of compounds. Various concentrations of the test compounds (0.0004-100 μM) were added and incubated for 72 h at 37 °C (total volume 200 μl). Stock solutions of the compounds were prepared as 10 mM DMSO solutions and diluted using cell […]
(§4) media. The final concentration of DMSO in each well was ≤1 %. After 72 h, 20 μl of MTT (4 mg mL-1 in PBS) was added to each well and the plates incubated for an additional 4 h at 37 °C. The media/MTT mixture was eliminated and DMSO (100 μl per well) was added to dissolve the formazan precipitates. The optical density was measured at 550 nm using a 96-well multiscanner autoreader. Absorbance values were normalised to (DMSO-containing) control wells and plotted as concentration of test compound versus % cell viability. IC50 values were interpolated from the resulting dose dependent curves. The reported IC50 values are the average of three independent experiments (n = 18). […]
(§5) After incubation for 16 […]
(§6) h, the fluorescence of the solutions was read at 590 nm (λex = 560 nm). Viable mammospheres reduce the amount of the oxidised TOX8 form (blue) and concurrently increase the amount of the fluorescent TOX8 intermediate (red), indicating the degree of mammosphere cytotoxicity caused by the test compound. […]
(§7) Cellular Uptake. To measure the cellular uptake of 1-3 about 1 million HMLER-shEcad cells were treated with 1-3 (0.25 μM) at 37 °C for 24 h. After incubation, the media was removed, the cells were washed with PBS (2 mL × 3) and harvested. The number of cells was counted at this stage, using a haemocytometer. This mitigates any cell death induced by 1-3 at the administered concentration and experimental cell loss. The cellular pellets were dissolved in 65% HNO3 (250 µL) overnight. A cellular pellet of HMLER-shEcad cells treated with 1 was also used to determine the gold content in the nuclear, cytoplasmic and membrane fractions. The Thermo Scientific NE-PER Nuclear and Cytoplasmic Extraction Kit was used to extract and separate the nuclear, cytoplasmic and membrane fractions. The fractions were dissolved in 65% HNO3 (250 µL final volume) overnight. All samples were diluted 17-fold with water and analysed using inductively coupled plasma mass spectrometry (ICP-MS, Thermo Scientific ICAP-Qc quadrupole ICP mass spectrometer). Gold levels are expressed as mass of Au (ng) per million cells. Results are presented as the mean of four determinations for each data point.
(§8) Intracellular ROS Assay. […]

HMLER-shEcad cells [2] = assay: Monolayer cytotoxicity (MTT assay), HMLER-shEcad cells; assay type: cell-based, human; conditions: for IC50: 72 h incubation, MTT
Text: as §1, §2, §3, §4, §5, §6, §7, §8

[3] = Solution stability by UV-vis and NMR spectroscopy; assay type: physicochemical
Procedure: The stability of 1–8 in solutions relevant for cell-based studies was determined by UV-vis spectroscopy studies. […] The DMSO- and PBS-stable complexes 1–4 (50 μM) were also deemed stable in MEGM : DMSO (1 : 1) over the course of 24 h at 37 °C (Fig. S22 ^†). Time course ^31P{^1H} and ^1H NMR spectroscopy studies were carried out to confirm the solution stability of 1–4. […] The ^1H NMR spectra for 1–3 (10 mM) remained unchanged over the same period (Fig. S26–S28 ^†). […] In the ^31P{^1H} NMR spectrum, the signal for intact 4 (at 27.05 ppm) completely disappeared after 48 h and was replaced by a signal corresponding to triphenylphosphine oxide (at 25.47 ppm) (Fig. S29 ^†). The formation of triphenylphosphine oxide was also detected in the ^1H NMR spectrum (Fig. S30 ^†). Additionally, plating of elemental gold was observed over the course of 72 h.

[4] = Water-octanol partition coefficient (shake-flask, UV-vis); assay type: physicochemical; conditions: room temperature 24 h
Procedure: Measurement of water-octanol partition coefficient (LogP). The LogP values for 1-8 were determined using the shake-flask method and UV-vis spectroscopy. The 1-octanol used in this experiment was pre-saturated with water. An aqueous solution of 1-8 (500 μL, 100 μM) was incubated with 1-octanol (500 μL) in a 1.5 mL tube. The tube was shaken at room temperature for 24 h. The two phases were separated by centrifugation and the 1-8 content in each phase was determined by UV-vis spectroscopy. […]

HMLER cells [5] = tested on: HMLER cells; parameters: method as in PMID 26806362, PMID 31209956, PMID 28932846; conditions: cited from earlier work
HMLER-shEcad cells [6] = tested on: HMLER-shEcad cells; parameters: method as in PMID 26806362, PMID 31209956, PMID 28932846; conditions: cited from earlier work
[7] = tested on: HMLER-shEcad mammospheres; parameters: method as in PMID 26806362, PMID 31209956, PMID 28932846; conditions: read-out: Mammosphere IC50; cited from earlier work
MDA-MB-468 cells = assay: Monolayer cytotoxicity (MTT assay), MDA-MB-468 cells; assay type: cell-based, human; conditions: 72 h incubation
Text: as §1, §2, §3, §4
Cellular Uptake. […]

[8] = tested on: HMLER-shEcad mammospheres; assay: Mammosphere viability assay (TOX8); assay type: cell-based, human; conditions: 5 days incubation
Procedure: Tumorsphere Formation and Viability Assay.
in ultralow-attachment 96-well plates (Corning) and incubated in MEGM supplemented with B27 (Invitrogen), 20 ng mL-1 EGF and 4 μg mL-1 heparin (Sigma) for 5 days. […] The viability of the mammospheres was determined by addition of a resazurin-based reagent, TOX8 (Sigma). After incubation for 16 h, the fluorescence of the solutions was read at 590 nm (λex = 560 nm). Viable mammospheres reduce the amount of the oxidised TOX8 form (blue) and concurrently increase the amount of the fluorescent TOX8 intermediate (red), indicating the degree of mammosphere cytotoxicity caused by the test compound. Fluorescence values were normalised to DMSO-containing controls and plotted as concentration of test compound versus % mammospheres viability. IC50 values were interpolated from the resulting dose dependent curves. The reported IC50 values are the average of three independent experiments, each consisting of two replicates per concentration level (overall n = 6).

4T1 cells = assay: Monolayer cytotoxicity (MTT assay), 4T1 cells; assay type: cell-based, murine; conditions: 72 h incubation
Text: as §1, §2, §3
(§9) media. The final concentration of DMSO in each well was ≤1 %. […] The optical density was measured at 550 nm using a 96-well multiscanner autoreader. Absorbance values were normalised to (DMSO-containing) control wells and plotted as concentration of test compound versus % cell viability. […]
(§10) h, the fluorescence of the solutions was read at 590 nm (λex = 560 nm). […]
(§11) Cellular Uptake. […] The number of cells was counted at this stage, using a haemocytometer. […] All samples were diluted 17-fold with water and analysed using inductively coupled plasma mass spectrometry (ICP-MS, Thermo Scientific ICAP-Qc quadrupole ICP mass spectrometer). Gold levels are expressed as mass of Au (ng) per million cells. […]

MDA-MB-231 cells = assay: Monolayer cytotoxicity (MTT assay), MDA-MB-231 cells; assay type: cell-based, human; conditions: 72 h incubation
Text: as §1, §2, §3, §9, §10, §11

**Q.** For `[Cl][Au].c1ccc(P(c2ccccc2)c2ccccc2)cc1` [chloro(triphenylphosphine)gold(I)], which IC50 (COX-2) is on record?
**A.** The IC50 was over 250 µM.

**Q.** What about the IC50 (HMLER cells [1]) of the same compound?
**A.** The IC50 was 0.207 ± 0.005 µM.

**Q.** What about the IC50 (HMLER-shEcad cells [2]) of the same compound?
**A.** Its IC50 is 0.216 ± 0.003 µM.

**Q.** And the “fold less toxic towards HMLER and HMLER-shEcad cells than 1” value (HMLER-shEcad cells [2]; compared with 1)?
**A.** The value was “up to 3.8 fold”.

**Q.** Which “stability in DMSO-d6 (31P{1H} and 1H NMR)” value ([3]; 10 mM, 72 h) does the source give for `O=C(Cc1ccccc1Nc1c(Cl)cccc1Cl)[O][Au][PH](c1ccccc1)(c1ccccc1)c1ccccc1` [complex 4] here?
**A.** The value was “unstable in solution”.

**Q.** Which LogP value [4] does the source give for `CC(C)Cc1ccc(C(C)C(=O)[O][Au][PH](c2ccccc2)(c2ccccc2)c2ccccc2)cc1` (stereo not shown) [complex 8] here?
**A.** Its LogP value is 1.19 ± 0.01.

**Q.** Which results are given for `N.N.[Cl][Pt][Cl]` [Cisplatin, cisplatin]?
**A.** IC50 (HMLER cells [5]): 2.565 ± 0.021 µM; IC50 (HMLER-shEcad cells [6]): 5.65 ± 0.304 µM; IC50 [7]: 14 ± 2 µM

**Q.** Which results are given for `O=C([O][Au][PH](c1ccccc1)(c1ccccc1)c1ccccc1)c1ccccc1O` [complex 5]?
**A.** stability in PBS : DMSO (1 : 1) (UV-vis) ([3]; 50 μM, 24 h, 37 °C): but not 5, was stable; LogP value [4]: 0.75 ± 0.01

**Q.** What does the source list for `O=C([O][Au][PH](c1ccccc1)(c1ccccc1)c1ccccc1)c1cc(-c2ccc(F)cc2F)ccc1O` [complex 2]?
**A.** IC50 (HMLER cells [1]): 0.221 ± 0.003 µM; IC50 (MDA-MB-468 cells): 7.12 ± 0.1 µM; IC50 (HMLER-shEcad cells [2]): 0.138 ± 0.007 µM; LogP value [4]: 1.54 ± 0.44; IC50 [8]: 8 ± 1 µM; IC50 (4T1 cells): 7.25 ± 0.4 µM; IC50 (MDA-MB-231 cells): 5.79 ± 0.79 µM

**Q.** For `Cc1cccc(Nc2ccccc2C(=O)[O][Au][PH](c2ccccc2)(c2ccccc2)c2ccccc2)c1C` [complex 7], which LogP value [4] is on record?
**A.** The LogP value was 0.83 ± 0.23.

**Q.** Which IC50 (HMLER cells [1]; Homo sapiens) does the source give for `CCCCCOC(=O)Nc1nc(=O)n([C@@H]2O[C@H](C)[C@@H](O)[C@H]2O)cc1F` [Capecitabine, capecitabine] here?
**A.** The IC50 was over 100 µM.

**Q.** And the IC50 (HMLER-shEcad cells [2]; Homo sapiens)?
**A.** The IC50 was over 100 µM.

**Q.** What about the IC50 ([8]; Homo sapiens, 120 h) of the same compound?
**A.** Its IC50 is over 133 µM.
